Patent US9695155B2, “Herbicidal substituted pyrimidinyloxy benzene compounds” (E. I. DU PONT DE NEMOURS AND COMPANY, priority 2013, dated 2017)

Tests used:
blackgrass = assay: Test A postemergence; type: in vivo, Alopecurus myosuroides; conditions: 1000 g ai/ha, 0 to 100 scale, 0 no effect, 100 complete control
From the text: (§1) Seeds of plant species selected from barnyardgrass (Echinochloa crus-galli), kochia (Kochia scoparia), ragweed (common ragweed, Ambrosia elatior), Italian ryegrass (Lolium multiflorum), large (Lg) crabgrass (Digitaria sanguinalis), giant foxtail (Setaria faberii), morningglory (Ipomoea spp.), pigweed (Amaranthus retroflexus), velvetleaf (Abutilon theophrasti), wheat (Triticum aestivum), and corn (Zea mays) were planted into a blend of loam soil and sand and treated preemergence with a directed soil spray using test chemicals formulated in a non-phytotoxic solvent mixture which included a surfactant.
(§2) At the same time, plants selected from these crop and weed species and also blackgrass (Alopecurus myosuroides), and galium (catchweed bedstraw, Galium aparine) were planted in pots containing the same blend of loam soil and sand and treated with postemergence applications of test chemicals formulated in the same manner. Plants ranged in height from 2 to 10 cm and were in the one- to two-leaf stage for the postemergence treatment. Treated plants and untreated controls were maintained in a greenhouse for approximately 10 days, after which time all treated plants were compared to untreated controls and visually evaluated for injury. Plant response ratings, summarized in Table A, are based on a 0 to 100 scale where 0 is no effect and 100 is complete control. A dash (-) response means no test result.

giant foxtail [1] = assay: Test A preemergence; type: in vivo, Setaria faberii; conditions: for Foxtail, Giant plant response rating (0 to 100 scale): 125 g ai/ha
Outline: (§3)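 Compounds in non-phytotoxic solvent with surfactant applied as soil spray preemergence, or postemergence to plants 2-10 cm at one- to two-leaf stage, in loam/sand. After approximately 10 days in greenhouse, injury rated visually versus untreated controls, 0 (no effect) to 100 (complete control).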

giant foxtail [2] = assay: Test A postemergence; type: in vivo, Setaria faberii
Outline: as §3

ragweed [3] = assay: Test A postemergence; type: in vivo, Ambrosia elatior; conditions: 1000 g ai/ha, 0 to 100 scale, 0 no effect, 100 complete control
From the text: as §1, §2

pigweed [4] = assay: Test A postemergence; type: in vivo, Amaranthus retroflexus
Outline: as §3

kochia [5] = assay: Test A postemergence; type: in vivo, Kochia scoparia; conditions: 1000 g ai/ha, 0 to 100 scale, 0 no effect, 100 complete control
From the text: as §1, §2

wheat [6] = assay: Test A postemergence; type: in vivo, Triticum aestivum
Outline: as §3

Italian ryegrass [7] = assay: Test A postemergence; type: in vivo, Lolium multiflorum; conditions: 1000 g ai/ha, 0 to 100 scale, 0 no effect, 100 complete control
From the text: as §1, §2

galium = assay: Test A postemergence; type: in vivo, Galium aparine; conditions: 1000 g ai/ha, 0 to 100 scale, 0 no effect, 100 complete control
From the text: as §1, §2

corn [8] = assay: Test A postemergence; type: in vivo, Zea mays
Outline: as §3

pigweed [9] = assay: Test A preemergence; type: in vivo, Amaranthus retroflexus; conditions: for Pigweed plant response rating (0 to 100 scale): 125 g ai/ha
Outline: as §3

kochia [10] = assay: Test A preemergence; type: in vivo, Kochia scoparia; conditions: 1000 g ai/ha, 0 to 100 scale, 0 no effect, 100 complete control, approx. 10 days
From the text: as §1, §2

barnyardgrass [11] = assay: Test A postemergence; type: in vivo, Echinochloa crus-galli
Outline: as §3

ragweed [12] = assay: Test A preemergence; type: in vivo, Ambrosia elatior; conditions: 1000 g ai/ha, 0 to 100 scale, 0 no effect, 100 complete control, approx. 10 days
From the text: as §1, §2

Italian ryegrass [13] = assay: Test A preemergence; type: in vivo, Lolium multiflorum; conditions: 1000 g ai/ha, 0 to 100 scale, 0 no effect, 100 complete control, approx. 10 days
From the text: as §1, §2

barnyardgrass [14] = assay: Test A preemergence; type: in vivo, Echinochloa crus-galli; conditions: for Barnyardgrass plant response rating (0 to 100 scale, 0 is no effect, 100 is complete control): 125 g ai/ha
Outline: as §3

wheat [15] = assay: Test A preemergence; type: in vivo, Triticum aestivum; conditions: for Wheat plant response rating (0 to 100 scale): 125 g ai/ha; for Wheat plant response rating: 500 g ai/ha, 0 to 100 scale where 0 is no effect and 100 is complete control
Outline: as §3

rice = assay: Test B flooded paddy test; type: in vivo, Oryza sativa; conditions: Flood, 250 g ai/ha; 0 to 100 scale where 0 is no effect and 100 is complete control
Outline: (§4)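 Seedlings are raised to two leaves, flooded to a depth of 3 cm and dosed by adding the compound to the floodwater. Water level is kept constant, and plants are scored visually versus controls 13–15 days later (0 = no effect, 100 = complete control).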

barnyardgrass [16] = assay: Test B flooded paddy test; type: in vivo, Echinochloa crus-galli; conditions: Flood, 250 g ai/ha; 0 to 100 scale where 0 is no effect and 100 is complete control
Outline: as §4

morningglory [17] = assay: Test A postemergence; type: in vivo, Ipomoea spp.
Outline: as §3

large (Lg) crabgrass [18] = assay: Test A preemergence; type: in vivo, Digitaria sanguinalis; conditions: for Crabgrass, Large plant response rating (0 to 100 scale): 125 g ai/ha; for Crabgrass, Large plant response rating: 500 g ai/ha, 0 to 100 scale where 0 is no effect and 100 is complete control
Outline: as §3

velvetleaf [19] = assay: Test A preemergence; type: in vivo, Abutilon theophrasti; conditions: for Velvetleaf plant response rating (0 to 100 scale): 125 g ai/ha; for Velvetleaf plant response rating: 500 g ai/ha, 0 to 100 scale where 0 is no effect and 100 is complete control
Outline: as §3

morningglory [20] = assay: Test A preemergence; type: in vivo, Ipomoea spp.; conditions: for Morningglory plant response rating (0 to 100 scale): 125 g ai/ha; for Morningglory plant response rating: 500 g ai/ha, 0 to 100 scale where 0 is no effect and 100 is complete control
Outline: as §3

velvetleaf [21] = assay: Test A postemergence; type: in vivo, Abutilon theophrasti
Outline: as §3

Heteranthera limosa = assay: Test B flooded paddy test; type: in vivo; conditions: Flood, 250 g ai/ha; 0 to 100 scale where 0 is no effect and 100 is complete control
Outline: as §4

large (Lg) crabgrass [22] = assay: Test A postemergence; type: in vivo, Digitaria sanguinalis
Outline: as §3

sedge, umbrella = assay: Test B flooded paddy test; type: in vivo, Cyperus difformis; conditions: Flood, 250 g ai/ha; 0 to 100 scale where 0 is no effect and 100 is complete control
Outline: as §4

corn [23] = assay: Test A preemergence; type: in vivo, Zea mays; conditions: for Corn plant response rating (0 to 100 scale): 125 g ai/ha; for Corn plant response rating: 500 g ai/ha, 0 to 100 scale where 0 is no effect and 100 is complete control
Outline: as §3

[24] = 1000 g ai/ha, 0 to 100 scale, 0 no effect, 100 complete control, approx. 10 days
[25] = 1000 g ai/ha, 0 to 100 scale, 0 no effect, 100 complete control
[26] = 500 g ai/ha, 0 to 100 scale where 0 is no effect and 100 is complete control
[27] = 125 g ai/ha, 0 to 100 scale, 0 no effect, 100 complete control

CCN(C)C(=O)c1cccc(Oc2ncc(Cl)cn2)c1-n1cc(C(F)(F)F)cn1 [Compound 262]
Plant response rating, Blackgrass (blackgrass): 10
Foxtail, Giant plant response rating (giant foxtail [1]; [24]): 50
Plant response rating, Foxtail, Giant (giant foxtail [2]; [25]): 10
Plant response rating, Ragweed (ragweed [3]): 10
Plant response rating, Pigweed (pigweed [4]; [25]): 50
Plant response rating, Kochia (kochia [5]): 30
Plant response rating, Wheat (wheat [6]; [25]): 0
Plant response rating, Ryegrass, Italian (Italian ryegrass [7]): 0
Plant response rating, Galium (galium): 10
Plant response rating, Corn (corn [8]; [25]): 0
Pigweed plant response rating (pigweed [9]; [24]): 10
Kochia plant response rating (kochia [10]): 20
Plant response rating, Barnyardgrass (barnyardgrass [11]; [25]): 10
Ragweed plant response rating (ragweed [12]): 0
Ryegrass, Italian plant response rating (Italian ryegrass [13]): 0
Barnyardgrass plant response rating (barnyardgrass [14]; [24]): 0

NC(=O)c1cnn(-c2ccccc2Oc2ncc(Cl)cn2)c1 [Compound 281]
Plant response rating, Blackgrass (blackgrass): 0
Foxtail, Giant plant response rating (giant foxtail [1]; [24]): 0
Plant response rating, Foxtail, Giant (giant foxtail [2]; [25]): 0
Plant response rating, Ragweed (ragweed [3]): 70
Plant response rating, Pigweed (pigweed [4]; [25]): 70
Plant response rating, Kochia (kochia [5]): 70
Plant response rating, Wheat (wheat [6]; [25]): 0
Plant response rating, Ryegrass, Italian (Italian ryegrass [7]): 0
Plant response rating, Galium (galium): 60
Plant response rating, Corn (corn [8]; [25]): 10
Pigweed plant response rating (pigweed [9]; [24]): 60
Kochia plant response rating (kochia [10]): 0
Plant response rating, Barnyardgrass (barnyardgrass [11]; [25]): 0
Ragweed plant response rating (ragweed [12]): 30
Ryegrass, Italian plant response rating (Italian ryegrass [13]): 10
Barnyardgrass plant response rating (barnyardgrass [14]; [24]): 0

CCOC(=O)c1cnn(-c2c(C#N)cccc2Oc2ncc(Cl)cn2)c1 [Compound 301]
Wheat plant response rating (0 to 100 scale) (wheat [15]): 0
Wheat plant response rating (wheat [15]): 0
Foxtail, Giant plant response rating (0 to 100 scale) (giant foxtail [1]): 0
Foxtail, Giant plant response rating (giant foxtail [1]; [26]): 0
Plant response rating, Foxtail, Giant (giant foxtail [2]; [27]): 0
Plant response rating, Foxtail, Giant (giant foxtail [2]; [26]): 0
Plant response rating, Rice (rice): 0
Plant response rating, Barnyardgrass (barnyardgrass [16]): 0
Plant response rating, Morningglory (morningglory [17]; [27]): 0
Plant response rating, Morningglory (morningglory [17]; [26]): 0
Crabgrass, Large plant response rating (0 to 100 scale) (large (Lg) crabgrass [18]): 0
Crabgrass, Large plant response rating (large (Lg) crabgrass [18]): 0
Plant response rating, Pigweed (pigweed [4]; [27]): 0
Plant response rating, Pigweed (pigweed [4]; [26]): 30
Velvetleaf plant response rating (0 to 100 scale) (velvetleaf [19]): 0
Velvetleaf plant response rating (velvetleaf [19]): 0
Plant response rating, Wheat (wheat [6]; [27]): 0
Plant response rating, Wheat (wheat [6]; [26]): 0
Morningglory plant response rating (0 to 100 scale) (morningglory [20]): 0
Morningglory plant response rating (morningglory [20]): 0
Plant response rating, Velvetleaf (velvetleaf [21]; [27]): 0
Plant response rating, Velvetleaf (velvetleaf [21]; [26]): 0
Plant response rating, Corn (corn [8]; [27]): 0
Plant response rating, Corn (corn [8]; [26]): 0
Pigweed plant response rating (0 to 100 scale) (pigweed [9]): 0
Pigweed plant response rating (pigweed [9]; [26]): 0
Plant response rating, Barnyardgrass (barnyardgrass [11]; [27]): 0
Plant response rating, Barnyardgrass (barnyardgrass [11]; [26]): 0
Plant response rating, Ducksalad (Heteranthera limosa): 0
Plant response rating, Crabgrass, Large (large (Lg) crabgrass [22]; [27]): 0
Plant response rating, Crabgrass, Large (large (Lg) crabgrass [22]; [26]): 0
Plant response rating, Sedge, Umbrella (sedge, umbrella): 0
Corn plant response rating (0 to 100 scale) (corn [23]): 0
Corn plant response rating (corn [23]): 0
Barnyardgrass plant response rating (0 to 100 scale, 0 is no effect, 100 is complete control) (barnyardgrass [14]): 0
Barnyardgrass plant response rating (barnyardgrass [14]; [26]): 0

N#Cc1cccc(Oc2ncc(Cl)cn2)c1-n1cc([N+](=O)[O-])cn1 [Compound 304]
Wheat plant response rating (0 to 100 scale) (wheat [15]): 0
Wheat plant response rating (wheat [15]): 0
Foxtail, Giant plant response rating (0 to 100 scale) (giant foxtail [1]): 0
Foxtail, Giant plant response rating (giant foxtail [1]; [26]): 0
Plant response rating, Foxtail, Giant (giant foxtail [2]; [27]): 0
Plant response rating, Foxtail, Giant (giant foxtail [2]; [26]): 0
Plant response rating, Rice (rice): 0
Plant response rating, Barnyardgrass (barnyardgrass [16]): 0
Plant response rating, Morningglory (morningglory [17]; [27]): 0
Plant response rating, Morningglory (morningglory [17]; [26]): 0
Crabgrass, Large plant response rating (0 to 100 scale) (large (Lg) crabgrass [18]): 0
Crabgrass, Large plant response rating (large (Lg) crabgrass [18]): 10
Plant response rating, Pigweed (pigweed [4]; [27]): 30
Plant response rating, Pigweed (pigweed [4]; [26]): 50
Velvetleaf plant response rating (0 to 100 scale) (velvetleaf [19]): 0
Velvetleaf plant response rating (velvetleaf [19]): 0
Plant response rating, Wheat (wheat [6]; [27]): 0
Plant response rating, Wheat (wheat [6]; [26]): 0
Morningglory plant response rating (0 to 100 scale) (morningglory [20]): 0
Morningglory plant response rating (morningglory [20]): 0
Plant response rating, Velvetleaf (velvetleaf [21]; [27]): 0
Plant response rating, Velvetleaf (velvetleaf [21]; [26]): 0
Plant response rating, Corn (corn [8]; [27]): 0
Plant response rating, Corn (corn [8]; [26]): 0
Pigweed plant response rating (0 to 100 scale) (pigweed [9]): 0
Pigweed plant response rating (pigweed [9]; [26]): 0
Plant response rating, Barnyardgrass (barnyardgrass [11]; [27]): 0
Plant response rating, Barnyardgrass (barnyardgrass [11]; [26]): 0
Plant response rating, Ducksalad (Heteranthera limosa): 0
Plant response rating, Crabgrass, Large (large (Lg) crabgrass [22]; [27]): 0
Plant response rating, Crabgrass, Large (large (Lg) crabgrass [22]; [26]): 0
Plant response rating, Sedge, Umbrella (sedge, umbrella): 0
Corn plant response rating (0 to 100 scale) (corn [23]): 0
Corn plant response rating (corn [23]): 0
Barnyardgrass plant response rating (0 to 100 scale, 0 is no effect, 100 is complete control) (barnyardgrass [14]): 0
Barnyardgrass plant response rating (barnyardgrass [14]; [26]): 0
